Measured values as given in ChEMBL document CHEMBL5465560, “Selectivity Literature for EUbOPEN Chemogenomic Library” (2024).
Values belong to the compound of their own block, whether it stands above or below them.

Columns and labels:
[1] = biological target: T1, Phosphatidylinositol 4,5-bisphosphate 3-kinase catalytic subunit delta isoform (Homo sapiens) (UniProt O00329); test: Selectivity interaction (KinomeScan (DiscoverX)) EUB0001079a PIK3CD; details: at 1 µM
T1 sequence (whole entry): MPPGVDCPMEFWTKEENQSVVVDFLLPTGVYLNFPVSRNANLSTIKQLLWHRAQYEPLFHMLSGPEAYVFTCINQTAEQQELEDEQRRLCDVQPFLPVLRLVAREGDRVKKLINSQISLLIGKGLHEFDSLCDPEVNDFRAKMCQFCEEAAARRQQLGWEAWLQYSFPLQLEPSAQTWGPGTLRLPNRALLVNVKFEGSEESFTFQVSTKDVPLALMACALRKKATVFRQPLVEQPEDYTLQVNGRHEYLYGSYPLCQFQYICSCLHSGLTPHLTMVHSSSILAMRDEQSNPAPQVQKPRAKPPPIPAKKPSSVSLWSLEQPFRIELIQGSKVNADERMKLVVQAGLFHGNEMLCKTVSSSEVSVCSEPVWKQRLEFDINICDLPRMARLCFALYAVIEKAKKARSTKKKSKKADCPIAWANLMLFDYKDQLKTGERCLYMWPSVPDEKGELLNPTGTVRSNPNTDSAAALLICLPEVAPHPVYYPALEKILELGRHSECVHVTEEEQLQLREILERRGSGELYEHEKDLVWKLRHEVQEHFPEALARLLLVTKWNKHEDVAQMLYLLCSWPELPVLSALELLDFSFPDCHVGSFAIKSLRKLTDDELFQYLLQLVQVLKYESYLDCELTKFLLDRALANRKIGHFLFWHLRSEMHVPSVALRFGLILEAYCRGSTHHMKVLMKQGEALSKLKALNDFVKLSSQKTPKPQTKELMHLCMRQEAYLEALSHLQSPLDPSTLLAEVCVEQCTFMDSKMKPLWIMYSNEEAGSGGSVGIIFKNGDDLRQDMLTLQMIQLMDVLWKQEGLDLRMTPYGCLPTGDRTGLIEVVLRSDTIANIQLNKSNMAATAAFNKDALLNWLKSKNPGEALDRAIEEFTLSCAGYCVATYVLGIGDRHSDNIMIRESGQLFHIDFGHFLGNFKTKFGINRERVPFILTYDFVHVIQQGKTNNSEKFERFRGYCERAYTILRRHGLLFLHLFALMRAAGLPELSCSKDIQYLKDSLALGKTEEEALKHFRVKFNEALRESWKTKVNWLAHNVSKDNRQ

[2] = biological target: Tyrosine-protein kinase Lyn (Homo sapiens, UniProt P07948); test: Selectivity interaction (Upstate Kinase Profiler service (Millipore)) EUB0000056c LYN; details: at 1 µM
Sequence of Tyrosine-protein kinase Lyn (P07948 2-512 limits assumed): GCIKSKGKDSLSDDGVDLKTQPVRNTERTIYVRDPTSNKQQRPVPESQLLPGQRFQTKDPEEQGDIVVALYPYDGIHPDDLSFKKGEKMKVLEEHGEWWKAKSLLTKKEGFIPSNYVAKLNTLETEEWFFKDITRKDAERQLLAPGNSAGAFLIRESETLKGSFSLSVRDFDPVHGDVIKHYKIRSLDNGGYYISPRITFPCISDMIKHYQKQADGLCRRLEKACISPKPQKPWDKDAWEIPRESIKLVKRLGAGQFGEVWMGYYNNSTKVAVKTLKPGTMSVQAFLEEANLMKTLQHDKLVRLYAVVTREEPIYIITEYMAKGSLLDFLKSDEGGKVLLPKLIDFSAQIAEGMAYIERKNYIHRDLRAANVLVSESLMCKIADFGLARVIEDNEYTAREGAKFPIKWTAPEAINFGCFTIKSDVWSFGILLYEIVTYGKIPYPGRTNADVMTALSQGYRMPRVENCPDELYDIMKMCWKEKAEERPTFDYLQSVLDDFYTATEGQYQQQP

[3] = biological target: T2, Serine/threonine-protein kinase Sgk1 (Homo sapiens) (UniProt O00141); test: Selectivity interaction (Upstate Kinase Profiler service (Millipore)) EUB0000056c SGK1; details: at 1 µM
T2 sequence (whole entry): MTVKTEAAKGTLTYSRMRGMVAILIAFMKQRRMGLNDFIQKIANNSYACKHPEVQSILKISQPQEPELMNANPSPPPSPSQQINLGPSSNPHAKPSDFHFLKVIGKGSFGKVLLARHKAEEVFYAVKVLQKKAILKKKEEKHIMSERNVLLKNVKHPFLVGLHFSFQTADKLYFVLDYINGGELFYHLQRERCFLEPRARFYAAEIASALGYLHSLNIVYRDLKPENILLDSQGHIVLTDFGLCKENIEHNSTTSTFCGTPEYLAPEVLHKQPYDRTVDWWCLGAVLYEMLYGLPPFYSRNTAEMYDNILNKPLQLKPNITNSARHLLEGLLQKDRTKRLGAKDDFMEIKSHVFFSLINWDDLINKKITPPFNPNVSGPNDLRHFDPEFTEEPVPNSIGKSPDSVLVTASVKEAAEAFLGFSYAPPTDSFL

[4] = biological target: Tyrosine-protein kinase JAK1 (Homo sapiens, UniProt P23458); test: Selectivity interaction (ActivX KiNativ screen (kinase selectivity in THP-1 cell lysates)) EUB0000639a JAK1; assay type: subcellular; details: lysate, at 1 µM
Sequence of Tyrosine-protein kinase JAK1 (P23458 whole entry): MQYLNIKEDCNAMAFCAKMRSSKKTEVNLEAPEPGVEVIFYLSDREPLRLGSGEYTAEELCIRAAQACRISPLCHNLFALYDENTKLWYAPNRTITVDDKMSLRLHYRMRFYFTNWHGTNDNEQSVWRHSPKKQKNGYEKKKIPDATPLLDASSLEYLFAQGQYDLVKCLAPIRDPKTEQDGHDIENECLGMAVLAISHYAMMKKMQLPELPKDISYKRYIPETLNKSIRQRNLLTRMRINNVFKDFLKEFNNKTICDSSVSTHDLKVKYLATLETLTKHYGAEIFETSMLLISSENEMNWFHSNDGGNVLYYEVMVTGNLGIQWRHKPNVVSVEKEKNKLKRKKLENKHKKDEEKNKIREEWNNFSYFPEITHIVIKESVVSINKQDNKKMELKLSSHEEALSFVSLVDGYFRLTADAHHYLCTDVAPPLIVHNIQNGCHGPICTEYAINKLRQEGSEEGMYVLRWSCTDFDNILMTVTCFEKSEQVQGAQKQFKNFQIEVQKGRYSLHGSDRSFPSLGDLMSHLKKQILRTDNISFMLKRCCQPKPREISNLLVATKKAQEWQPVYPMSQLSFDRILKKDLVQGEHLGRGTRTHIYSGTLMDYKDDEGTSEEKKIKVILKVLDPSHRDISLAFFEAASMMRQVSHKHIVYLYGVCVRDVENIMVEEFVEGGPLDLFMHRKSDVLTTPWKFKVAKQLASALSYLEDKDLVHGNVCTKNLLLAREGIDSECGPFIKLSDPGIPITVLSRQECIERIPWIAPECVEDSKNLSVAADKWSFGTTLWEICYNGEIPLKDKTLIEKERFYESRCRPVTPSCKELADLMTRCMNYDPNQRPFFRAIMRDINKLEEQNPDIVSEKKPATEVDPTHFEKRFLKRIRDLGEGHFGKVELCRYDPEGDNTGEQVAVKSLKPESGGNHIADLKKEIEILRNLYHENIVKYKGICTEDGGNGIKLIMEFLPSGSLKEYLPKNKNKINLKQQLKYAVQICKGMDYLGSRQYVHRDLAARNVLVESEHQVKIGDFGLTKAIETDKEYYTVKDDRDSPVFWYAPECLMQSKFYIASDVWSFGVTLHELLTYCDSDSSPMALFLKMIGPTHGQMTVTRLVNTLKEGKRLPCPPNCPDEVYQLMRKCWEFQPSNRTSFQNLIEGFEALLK

[5] = biological target: T3, Serine/threonine-protein kinase haspin (Homo sapiens) (UniProt Q8TF76); test: Selectivity interaction (KinomeScan (DiscoverX)) EUB0000666a GSG2; details: at 10 µM
T3 sequence (whole entry): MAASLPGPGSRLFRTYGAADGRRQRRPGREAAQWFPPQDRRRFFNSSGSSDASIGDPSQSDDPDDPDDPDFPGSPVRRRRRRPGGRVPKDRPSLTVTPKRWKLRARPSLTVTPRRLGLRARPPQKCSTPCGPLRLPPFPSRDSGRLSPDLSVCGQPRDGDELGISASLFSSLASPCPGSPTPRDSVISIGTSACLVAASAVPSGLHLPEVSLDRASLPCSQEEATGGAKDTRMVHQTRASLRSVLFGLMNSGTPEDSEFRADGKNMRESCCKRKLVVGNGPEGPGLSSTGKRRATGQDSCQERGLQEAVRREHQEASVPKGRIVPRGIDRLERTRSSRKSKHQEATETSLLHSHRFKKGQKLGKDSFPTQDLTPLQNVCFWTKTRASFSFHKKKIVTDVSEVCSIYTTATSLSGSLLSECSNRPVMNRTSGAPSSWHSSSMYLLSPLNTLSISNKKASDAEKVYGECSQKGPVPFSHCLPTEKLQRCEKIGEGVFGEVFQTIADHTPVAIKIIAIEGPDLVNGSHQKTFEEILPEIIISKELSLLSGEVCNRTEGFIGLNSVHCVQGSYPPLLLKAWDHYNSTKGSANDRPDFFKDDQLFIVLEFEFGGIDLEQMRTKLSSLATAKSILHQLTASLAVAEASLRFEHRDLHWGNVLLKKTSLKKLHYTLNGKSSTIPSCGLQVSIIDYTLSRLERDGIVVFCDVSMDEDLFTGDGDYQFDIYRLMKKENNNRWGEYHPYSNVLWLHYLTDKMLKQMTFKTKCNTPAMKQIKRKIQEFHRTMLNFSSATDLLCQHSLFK

Structure (SMILES): Nc1cnc(N2CCc3cc(S(=O)(=O)Nc4c(F)cc(Cl)cc4F)cc(N4CCCC4=O)c32)nc1 [TP-020n]
% of control [1]: 88%

% of inhibition [2]: 8% | % of inhibition [3]: 4%
Structure (SMILES): Cc1ccc(-c2ccc3c(ccc4sc5c(c43)NC[C@@H](C)NC5=O)n2)cn1

% of inhibition [4]: 3.8%
Structure (SMILES): CC[C@@H]1[C@H](F)C(=O)N[C@@H]1COc1nccc2cc(C(N)=O)c(OC)cc12 [ZIMLOVISERTIB]

Structure (SMILES): O=C(NOC[C@H](O)CO)c1ccc(F)c(F)c1Nc1ccc(I)cc1F
% of control [5]: 100%
